For 20 compounds, IC50 results are on record in patent US9353101B2 (Merck Sharp & Dohme Corp., priority 2012, dated 2016).

In assay [1] the target is T1, CETP (Homo sapiens (Human), UniProt P11597). In words: Scintillation Proximity Assay (SPA) for CETP Activity. In kind it is biochemical. As to conditions: 15 nM CETP, biotinylated LDL, 3H-cholesterol ester HDL; read-out: SPA IC50 (CETP Inhibition). As for the experimental part:
Protocol: Scintillation Proximity Assay (SPA) for CETP Activity
First, low density lipoprotein (LDL) (Meridian) was biotinylated by incubating LDL with biotin for 1 hour on ice, after which it was dialyzed to remove free biotin. Then compounds at varying concentrations were incubated with 15 nM CETP (reagent production group, In Vitro Pharmacology, MRL Rahway) and 50 ug/ml of the biotinylated LDL in 50 mM HEPES, 150 mM NaCl, pH 7.4, for 1 hour at 37° C. The reaction was started by adding ^3H-cholesterol ester high density lipoprotein (HDL) (American Radiochemicals Corp) at a concentration of ˜0.6 nM. The reaction proceeded for 2 hours at 37° C., after which time it was quenched by the addition of 12% acetic acid. PVT streptavadin-coated scintillation proximity beads, which had been brought to room temperature, were then added at a concentration of 4 mg/ml. The assay was then mixed and counted after one half hour in a Microbeta plate reader.
Target sequence in this assay (P11597 18-493): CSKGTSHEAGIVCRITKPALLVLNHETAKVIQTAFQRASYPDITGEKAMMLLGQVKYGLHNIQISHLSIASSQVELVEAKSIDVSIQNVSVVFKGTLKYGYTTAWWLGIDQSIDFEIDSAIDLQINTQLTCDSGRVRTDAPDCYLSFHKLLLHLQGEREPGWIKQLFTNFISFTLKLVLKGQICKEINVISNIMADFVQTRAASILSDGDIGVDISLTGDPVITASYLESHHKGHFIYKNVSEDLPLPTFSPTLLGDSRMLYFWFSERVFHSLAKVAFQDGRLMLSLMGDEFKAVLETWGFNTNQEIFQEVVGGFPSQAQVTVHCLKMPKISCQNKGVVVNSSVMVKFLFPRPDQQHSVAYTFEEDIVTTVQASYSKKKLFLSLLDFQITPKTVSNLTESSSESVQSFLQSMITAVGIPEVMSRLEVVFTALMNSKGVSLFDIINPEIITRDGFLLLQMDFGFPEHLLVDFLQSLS

The target of assay [2] is T1, CETP. Description: In vitro radioactive assay of CETP-catalyzed CE and TG transfer (RTA assay), 95% human serum. In kind it is biochemical. Particulars: RTA assay in 95% human serum; read-out: RTA IC50 (CETP Inhibition). On the procedure: In Vitro Radioactive Assays of CETP-Catalyzed CE and TG Transfer (RTA Assay)
Reagents and sources are: [3H] cholesteryl oleate (GE #TRK.886), [3H] Triolein (Perkin-Elmer NET-431), Butylated hydroxyl toluene (Aldrich, #D4740-4), DOPC (Sigma, # P6354), Sodium Bromide (Fisher scientific #S255-500), PEG 8000 (Fisher, #BP233-1), and human HDL (Intracel Corp #RP-036).
An in vitro assay for determining IC50's to identify compounds that inhibit CETP transfer activity is performed based on a modification of a published method (Morton and Zilversmit, (1981) A plasma inhibitor of triglyceride and cholesteryl ester transfer activities, J. Biol. Chem. 256(23), 11992-11995). The ability of inhibitors to alter CETP activity is performed using two different assays: one using recombinant CETP and one using an endogenous plasma source of CETP. Both assays measure the transfer of [3H] cholesteryl oleate or [3H] triolein from exogenous LDL to HDL.
Radiolabeled donor particles are generated by first combining 100 μl of 200 μM butylated hydroxyl toluene in CHCl3, 216 μL of 21.57 mM DOPC in EtOH, and either 500 μCi [3H]-triolein (Perkin Elmer #NET-431) or 500 μCi [3H]-cholesteryl oleate (GE #TRK886) in a glass tube. Reagents are mixed, dried under nitrogen, and then resuspended in 2 mL of 50 mM Tris, 27 μM EDTA at pH 7.4. After a brief vortex, the solution is sonicated until clear and mixed with 20 mL of fresh human serum. The mixture is incubated overnight at 37° C. The [3H] labeled LDL substrate is separated at 1.063 g/ml density by sequential ultracentrifugal flotation in NaBr according to the method by (Havel, Eder et al. 1955; Chapman, Goldstein et al. 1981). Once isolated the particles are dialyzed 3× in CETP buffer (50 mM Tris, pH 7.4, 100 mM NaCl, 1 mM EDTA). Human HDL is purchased from Intracel and used as the acceptor particles.
Transfer assays are performed in a 96 or 384-well v-bottom polypropylene plate. For the RTA using recombinant CETP (2% RTA), an assay cocktail is prepared with the final concentrations 128 μg/mL HDL, 20 nM rCETP, 2% human serum, and 1×CETP buffer. 1 μL of each test compound diluted in DMSO is added to 47 μL of assay cocktail per well and incubated at 37° C. for 1 hour. To initiate the transfer reaction, 2 μL radiolabeled LDL is added. After an additional 60 min of incubation at 37° C., the transfer action is terminated by precipitation of LDL with an equal volume of 20% W/V PEG 8000. The plates are centrifuged at 2000 rpm for 30 minutes at 4° C. A 40 μL aliquot of the HDL-containing supernatant is transferred to a Packard Optiplate™ with 200 μL of MicroScint™ 20. After mixing, plates are counted by liquid scintillation. Counts present in the supernatant for blanks (wells containing only HDL acceptor, CETP buffer and DMSO) are subtracted from those containing test compounds and used to correct for non-specific transfer.
For the transfer assay using endogenous CETP from serum (95% RTA), the same procedure is used except that human serum is added such that a final concentration of serum of 95% of the total assay volume is achieved, yielding a concentration of approximately 15 nM endogenous CETP in the assay. This is then combined with HDL and CETP buffer and the reaction proceeds as above and is terminated as described.
Comparison of the counts of samples with inhibitors to an uninhibited (DMSO only) positive control yield a percent inhibition. A plot of percent inhibition vs. log of inhibitor concentration, fit to a Sigmoidal 4 parameter equation is used to calculate IC50.
Starting materials are commercially available or are made using known procedures or as shown below. The examples may be synthesized using the general schemes provided below. The data reported for the examples below were obtained using the RTA assay in 95% human serum.
Target sequence in this assay (P11597 18-493 limits assumed): as the sequence (P11597 18-493) above

Broadly, the IC50 is the concentration that gives 50% inhibition. As to `COc1ncc(C(C)C)cc1-c1cnc(N2CC(F)C2)nc1CN1C(=O)O[C@H](c2cc(C(F)(F)F)cc(C(F)(F)F)c2)[C@@H]1C` [Example 2, (4S,5R)-5-[3,5-Bis(trifluoromethyl)phenyl]-3-{[2-(3-fluoroazetidin-1-yl)-5-(5-isopropyl-2-methoxypyridin-3-yl)pyrimidin-4-yl]methyl}-4-methyl-1,3-oxazolidin-2-one], in assay [1], the IC50 turned out to be 0.011 µM.

On to `COc1ncc(-c2cnn(C)c2)cc1-c1cnc(N2CC(F)C2)nc1CN1C(=O)O[C@H](c2cc(C(F)(F)F)cc(C(F)(F)F)c2)[C@@H]1C` [Example 4], for which the IC50 in assay [1] was found to be 0.137 µM.

`COc1ncc(C2CC2)cc1-c1cnc(N2CC(F)C2)nc1CN1C(=O)O[C@H](c2cc(C(F)(F)F)cc(C(F)(F)F)c2)[C@@H]1C` [Example 5]: in assay [1], the IC50 was found to be 0.034 µM.

Consider `COc1ncc(Cl)cc1-c1cnc(N2CCOCC2)nc1CN1C(=O)O[C@H](c2cc(C(F)(F)F)cc(C(F)(F)F)c2)[C@@H]1C` [Example 11, (4S,5R)-5-[3,5-Bis(trifluoromethyl)phenyl]-3-{[5-(5-chloro-2-methoxypyridin-3-yl)-2-(morpholin-4-yl)pyrimidin-4-yl]methyl}-4-methyl-1,3-oxazolidin-2-one], for which, in assay [1], the IC50 was 0.671 µM.

With `COc1ncc(-c2c(C)cc(C(=O)O)cc2C)cc1-c1cnc(N2CC(F)C2)nc1CN1C(=O)O[C@H](c2cc(F)cc(C(F)(F)F)c2)[C@@H]1C` [Example 48, 4-{5-[2-(3-Fluoroazetidin-1-yl)-4-({(4S,5R)-5-[3-fluoro-5-(trifluoromethyl)phenyl]-4-methyl-2-oxo-1,3-oxazolidin-3-yl}methyl)pyrimidin-5-yl]-6-methoxypyridin-3-yl}-3,5-dimethylbenzoic acid], in assay [2], the IC50 was 0.015 µM.

On to `Cc1cc(C(=O)O)ccc1-c1nc(C(C)(C)C)c(-c2cnc(N3CC(F)(F)C3)nc2CN2C(=O)O[C@H](c3cc(C(F)(F)F)cc(C(F)(F)F)c3)[C@@H]2C)s1` [Example 49, 4-{5-[4-({(4S,5R)-5-[3,5-Bis(trifluoromethyl)phenyl]-4-methyl-2-oxo-1,3-oxazolidin-3-yl}methyl)-2-(3,3-difluoroazetidin-1-yl)pyrimidin-5-yl]-4-tert-butyl-1,3-thiazol-2-yl}-3-methylbenzoic acid], for which, in assay [2], the IC50 is 0.8 µM.

Turning to `Cc1cc(C(=O)O)ccc1-c1nc(C(C)(C)C)c(-c2cnc(N3CC(F)C3)nc2CN2C(=O)O[C@H](c3cc(C(F)(F)F)cc(C(F)(F)F)c3)[C@@H]2C)s1` [Example 50, 4-{5-[4-({(4S,5R)-5-[3,5-Bis(trifluoromethyl)phenyl]-4-methyl-2-oxo-1,3-oxazolidin-3-yl}methyl)-2-(3-fluoroazetidin-1-yl)pyrimidin-5-yl]-4-tert-butyl-1,3-thiazol-2-yl}-3-methylbenzoic acid], the IC50 in assay [2] came out at 0.197 µM.

With `Cc1cc(C(=O)O)ccc1-c1nc(C)c(-c2cnc(N3CC(F)C3)nc2CN2C(=O)O[C@H](c3cc(C(F)(F)F)cc(C(F)(F)F)c3)[C@@H]2C)s1` [Example 51, 4-{5-[4-({(4S,5R)-5-[3,5-Bis(trifluoromethyl)phenyl]-4-methyl-2-oxo-1,3-oxazolidin-3-yl}methyl)-2-(3-fluoroazetidin-1-yl)pyrimidin-5-yl]-4-methyl-1,3-thiazol-2-yl}-3-methylbenzoic acid], the IC50 in assay [2] was determined as 0.033 µM.

For the compound `Cc1cc(C(=O)O)ccc1-c1nc(C)c(-c2cnc(N3CC(F)(F)C3)nc2CN2C(=O)O[C@H](c3cc(C(F)(F)F)cc(C(F)(F)F)c3)[C@@H]2C)s1` [Example 52, 4-{5-[4-({(4S,5R)-5-[3,5-Bis(trifluoromethyl)phenyl]-4-methyl-2-oxo-1,3-oxazolidin-3-yl}methyl)-2-(3,3-difluoroazetidin-1-yl)pyrimidin-5-yl]-4-methyl-1,3-thiazol-2-yl}-3-methylbenzoic acid], in assay [2], the IC50 came out at 0.061 µM.

Turning to `Cc1cc(C(=O)O)ccc1-c1cnc(C)c(-c2cnc(N3CC(F)C3)nc2CN2C(=O)O[C@H](c3cc(C(F)(F)F)cc(C(F)(F)F)c3)[C@@H]2C)c1` [Example 54, 4-{5-[4-({(4S,5R)-5-[3,5-Bis(trifluoromethyl)phenyl]-4-methyl-2-oxo-1,3-oxazolidin-3-yl}methyl)-2-(3-fluoroazetidin-1-yl)pyrimidin-5-yl]-6-methylpyridin-3-yl}-3-methylbenzoic acid], the IC50 in assay [2] was 0.026 µM.

As for `COc1ncc(-c2ccc(C(=O)OC(C)(C)C)cc2C)cc1-c1ccc(N2CCOCC2)nc1CN1C(=O)O[C@H](c2cc(C(F)(F)F)cc(C(F)(F)F)c2)[C@@H]1C` [Example 55], in assay [2], the IC50 came to 0.022 µM.

On to `COc1ncc(-c2ccc(C(=O)O)cc2C)cc1-c1ccc(N2CCOCC2)nc1CN1C(=O)O[C@H](c2cc(C(F)(F)F)cc(C(F)(F)F)c2)[C@@H]1C` [Example 56], for which, in assay [2], the IC50 turned out to be 0.009 µM.

On to `COc1ncc(-c2c(C)cc(C(=O)OC(C)(C)C)cc2C)cc1-c1ccc(N2CC(F)(F)C2)nc1CN1C(=O)O[C@H](c2cc(C(F)(F)F)cc(C(F)(F)F)c2)[C@@H]1C` [Example 57], for which, in assay [2], the IC50 was determined as 0.005 µM.

Regarding `COc1ncc(-c2c(C)cc(C(=O)O)cc2C)cc1-c1ccc(N2CC(F)(F)C2)nc1CN1C(=O)O[C@H](c2cc(C(F)(F)F)cc(C(F)(F)F)c2)[C@@H]1C` [Example 58], the IC50 in assay [2] worked out at 0.007 µM.

Turning to `COc1ncc(-c2ccc(C(=O)OC(C)(C)C)cc2C)cc1-c1ccc(N2CC(F)(F)C2)nc1CN1C(=O)O[C@H](c2cc(C(F)(F)F)cc(C(F)(F)F)c2)[C@@H]1C` [Example 59], the IC50 in assay [2] worked out at 0.015 µM.

For the compound `COc1ncc(-c2ccc(C(=O)O)cc2C)cc1-c1ccc(N2CC(F)(F)C2)nc1CN1C(=O)O[C@H](c2cc(C(F)(F)F)cc(C(F)(F)F)c2)[C@@H]1C` [Example 60], in assay [2], the IC50 turned out to be 0.005 µM.

Consider `COc1ncc(-c2ccc(C(=O)OC(C)(C)C)cc2C)cc1-c1ccc(N2CC(F)C2)nc1CN1C(=O)O[C@H](c2cc(C(F)(F)F)cc(C(F)(F)F)c2)[C@@H]1C` [Example 61], for which the IC50 in assay [2] came out at 0.015 µM.

As to `COc1ncc(-c2ccc(C(=O)O)cc2C)cc1-c1ccc(N2CC(F)C2)nc1CN1C(=O)O[C@H](c2cc(C(F)(F)F)cc(C(F)(F)F)c2)[C@@H]1C` [Example 62], the half-inhibitory concentration (IC50) in assay [2] worked out at 0.006 µM.

`COc1ncc(-c2c(C)cc(C(=O)O)cc2C)cc1-c1cnc(N2CC(F)(F)C2)cc1CN1C(=O)O[C@H](c2cc(C(F)(F)F)cc(C(F)(F)F)c2)[C@@H]1C` [Example 63]: in assay [2], the IC50 was 0.052 µM.

Consider `Cc1noc(C)c1-c1cnc(N2CCC2)nc1CN1C(=O)O[C@H](c2cc(C(F)(F)F)cc(C(F)(F)F)c2)[C@@H]1C` [Example 64, (4S,5R)-3-{[2-(azetidin-1-yl)-5-(3,5-dimethylisoxazol-4-yl)pyrimidin-4-yl]methyl}-5-[3,5-bis(trifluoromethyl)phenyl]-4-methyl-1,3-oxazolidin-2-one], for which, in assay [2], the IC50 amounted to 0.271 µM.
